According to patent US8372854B2, “Pyrrolo[2,3-D]pyrimidine compounds” (Pfizer Inc., priority 2009, dated 2013):

Assays:
Type in all cases: biochemical
[1] = target: T1, JAK3 (Homo sapiens, UniProt P52333); assay: JAK enzymatic assay (peptide mobility shift), JAK3; settings: recombinant JAK3 1 nM, ATP 4 μM, 1 μM JAKtide peptide, 90 minutes
T1 construct: purchased Invitrogen Corporation, Madison, Wis; PV3855
T1 sequence (P52333 1-1124): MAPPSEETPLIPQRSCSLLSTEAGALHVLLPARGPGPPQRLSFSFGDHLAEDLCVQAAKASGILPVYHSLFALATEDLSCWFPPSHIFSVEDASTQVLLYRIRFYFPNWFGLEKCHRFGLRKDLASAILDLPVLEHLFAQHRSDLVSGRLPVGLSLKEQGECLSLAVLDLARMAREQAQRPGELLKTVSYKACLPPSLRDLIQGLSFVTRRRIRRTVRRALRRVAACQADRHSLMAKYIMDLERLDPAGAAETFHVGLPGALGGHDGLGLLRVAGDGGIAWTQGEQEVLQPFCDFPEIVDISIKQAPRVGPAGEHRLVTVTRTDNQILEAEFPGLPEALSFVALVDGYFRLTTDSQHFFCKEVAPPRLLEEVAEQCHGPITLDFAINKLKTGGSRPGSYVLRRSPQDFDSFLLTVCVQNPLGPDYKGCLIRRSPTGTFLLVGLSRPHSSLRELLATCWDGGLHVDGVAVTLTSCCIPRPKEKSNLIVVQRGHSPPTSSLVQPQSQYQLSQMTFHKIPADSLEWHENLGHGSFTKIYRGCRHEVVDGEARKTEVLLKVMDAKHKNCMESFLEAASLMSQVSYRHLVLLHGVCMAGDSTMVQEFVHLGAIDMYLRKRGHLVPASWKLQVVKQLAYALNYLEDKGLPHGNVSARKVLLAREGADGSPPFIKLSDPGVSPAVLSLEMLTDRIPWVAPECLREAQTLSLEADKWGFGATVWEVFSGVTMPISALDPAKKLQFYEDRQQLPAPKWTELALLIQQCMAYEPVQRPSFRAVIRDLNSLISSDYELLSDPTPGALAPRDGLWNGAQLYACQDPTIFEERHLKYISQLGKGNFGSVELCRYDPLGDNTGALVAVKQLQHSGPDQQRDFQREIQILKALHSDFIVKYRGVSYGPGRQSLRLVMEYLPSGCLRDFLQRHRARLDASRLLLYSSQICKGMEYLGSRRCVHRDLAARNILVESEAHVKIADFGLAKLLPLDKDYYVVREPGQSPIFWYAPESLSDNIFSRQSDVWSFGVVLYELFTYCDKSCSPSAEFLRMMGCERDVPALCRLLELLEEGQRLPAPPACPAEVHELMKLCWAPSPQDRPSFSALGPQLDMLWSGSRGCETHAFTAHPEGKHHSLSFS
Description: Recombinant JAK1 (Catalog Number PV4775), JAK2 (Catalog Number PV4210) and JAK3 (Catalog Number PV3855) were purchased from (Invitrogen Corporation, Madison, Wis.). Tyk2 (His-Tyk2 (888-1182, C936S, C1142S)) used in this study was expressed and purified at Pfizer Laboratories. Adenosine 5′-triphosphate (ATP) was obtained from (Sigma Chemical Company, St. Louis, Mo.). […] Coating Reagent 3 was purchased from (Caliper Life Sciences, Hopkinton, Mass.).
(§1) A peptide mobility shift assay was used to quantify the phosphorylation of the JAKtide (JAK2 and JAK3) or the IRS-1 peptide ([…] and Tyk2). Reactions were carried out in a 384-well plate (Matrical MP-101) in a 10 μL total volume. Reaction mixtures contained 20 mM HEPES, pH 7.4, 10 mM magnesium chloride, 0.01% bovine serum albumin (BSA), 0.0005% Tween-20, ATP (4 μM for JAK2 and JAK3, 40 μM for JAK1 and 7 μM for Tyk2)), 2% DMSO and 1 μM peptide substrate (JAKtide for JAK2 and JAK3 and IRS-1 peptide for JAK1 and Tyk2). Compounds were diluted serially in 100% dimethyl sulfoxide and tested in an 11 point dose response in duplicate or quadruplicate (200 nl of compound/DMSO was added per 10 μL reaction). The reactions were initiated by the addition of enzyme to the final concentration of 2 nM JAK2, 1 nM JAK3, 12 nM Tyk2 or 20 nM JAK1. The assay was run for 240 minutes for JAK1, 150 minutes for JAK2, 90 minutes for JAK3 and 70 minutes for Tyk2. The assays were stopped at the specified times with 20 uL of 140 mM HEPES, 22.5 mM EDTA and 0.15% Coating Reagent 3. The plates were placed on a LabChip 3000 (LC3000) instrument from (Caliper Life Sciences) to measure the formation of phosphorylated peptide. Data was analyzed using Hits Well Analyzer Software from (Caliper Life Sciences) to obtain the amount of product formed.
(§2) Data was then imported into an internal application where each data point is expressed as % inhibition based on uninhibited and no enzyme controls. Dose-response data is then fit using a 4 parameter logistic equation (Equation 1) to determine an IC50.
(§3) Where max is the fitted uninhibited value, min is the fitted complete inhibition value, and s is the slope factor.

[2] = target: T2, JAK1 (Homo sapiens, UniProt P23458); assay: JAK enzymatic assay (peptide mobility shift), JAK1; settings: recombinant JAK1 20 nM, ATP 40 μM, 1 μM IRS-1 peptide, 240 minutes
T2 construct: purchased Invitrogen Corporation, Madison, Wis; PV4775
T2 sequence (P23458 whole entry): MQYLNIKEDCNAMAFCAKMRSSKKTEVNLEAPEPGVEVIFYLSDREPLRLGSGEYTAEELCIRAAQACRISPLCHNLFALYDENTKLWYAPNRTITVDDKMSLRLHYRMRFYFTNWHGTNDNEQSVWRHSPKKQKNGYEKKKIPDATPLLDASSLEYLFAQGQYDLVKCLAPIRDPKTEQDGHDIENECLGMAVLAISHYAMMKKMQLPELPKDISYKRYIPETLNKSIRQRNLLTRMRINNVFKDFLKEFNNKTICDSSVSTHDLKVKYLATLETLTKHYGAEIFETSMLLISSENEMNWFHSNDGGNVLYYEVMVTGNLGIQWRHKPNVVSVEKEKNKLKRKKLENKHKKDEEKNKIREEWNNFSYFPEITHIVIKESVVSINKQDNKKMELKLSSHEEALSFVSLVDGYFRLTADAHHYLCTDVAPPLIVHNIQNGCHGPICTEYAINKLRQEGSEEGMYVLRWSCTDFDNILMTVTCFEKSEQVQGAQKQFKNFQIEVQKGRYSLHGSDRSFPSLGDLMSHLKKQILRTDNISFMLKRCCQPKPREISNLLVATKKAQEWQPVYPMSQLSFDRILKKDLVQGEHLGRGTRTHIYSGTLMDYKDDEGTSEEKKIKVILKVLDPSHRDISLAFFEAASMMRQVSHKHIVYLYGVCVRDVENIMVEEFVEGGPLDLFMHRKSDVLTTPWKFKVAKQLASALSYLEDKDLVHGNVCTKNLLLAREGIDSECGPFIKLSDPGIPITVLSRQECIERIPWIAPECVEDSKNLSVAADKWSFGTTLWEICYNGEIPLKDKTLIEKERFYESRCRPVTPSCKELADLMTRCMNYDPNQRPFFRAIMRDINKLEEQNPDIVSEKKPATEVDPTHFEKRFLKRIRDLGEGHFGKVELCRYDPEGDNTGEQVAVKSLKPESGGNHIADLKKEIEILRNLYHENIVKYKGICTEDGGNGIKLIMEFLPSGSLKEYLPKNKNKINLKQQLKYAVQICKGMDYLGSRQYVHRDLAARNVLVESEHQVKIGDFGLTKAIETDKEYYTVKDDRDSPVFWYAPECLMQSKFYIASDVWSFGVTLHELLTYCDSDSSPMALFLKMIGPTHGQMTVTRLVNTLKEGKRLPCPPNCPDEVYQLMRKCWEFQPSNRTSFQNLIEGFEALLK
Description: (§4) Recombinant JAK1 (Catalog Number PV4775), JAK2 (Catalog Number PV4210) and JAK3 (Catalog Number PV3855) were purchased from (Invitrogen Corporation, Madison, Wis.). Tyk2 (His-Tyk2 (888-1182, C936S, C1142S)) used in this study was expressed and purified at Pfizer Laboratories. Adenosine 5′-triphosphate (ATP) was obtained from (Sigma Chemical Company, St. Louis, Mo.). The JAKtide peptide (peptide sequence, FITC-[…]) used for the JAK2 and JAK3 assays and the IRS-1 peptide (peptide sequence, 5-FAM-[…]) used for the JAK1 and Tyk2 assays were purchased from (American Peptide Company, Sunnyvale, Calif.). Coating Reagent 3 was purchased from (Caliper Life Sciences, Hopkinton, Mass.).
as §1, §2, §3

[3] = target: T3, JAK2 (Homo sapiens, UniProt O60674); assay: JAK enzymatic assay (peptide mobility shift), JAK2; settings: recombinant JAK2 2 nM, ATP 4 μM, 1 μM JAKtide peptide, 150 minutes
T3 construct: purchased Invitrogen Corporation, Madison, Wis; PV4210
T3 sequence (O60674 whole entry): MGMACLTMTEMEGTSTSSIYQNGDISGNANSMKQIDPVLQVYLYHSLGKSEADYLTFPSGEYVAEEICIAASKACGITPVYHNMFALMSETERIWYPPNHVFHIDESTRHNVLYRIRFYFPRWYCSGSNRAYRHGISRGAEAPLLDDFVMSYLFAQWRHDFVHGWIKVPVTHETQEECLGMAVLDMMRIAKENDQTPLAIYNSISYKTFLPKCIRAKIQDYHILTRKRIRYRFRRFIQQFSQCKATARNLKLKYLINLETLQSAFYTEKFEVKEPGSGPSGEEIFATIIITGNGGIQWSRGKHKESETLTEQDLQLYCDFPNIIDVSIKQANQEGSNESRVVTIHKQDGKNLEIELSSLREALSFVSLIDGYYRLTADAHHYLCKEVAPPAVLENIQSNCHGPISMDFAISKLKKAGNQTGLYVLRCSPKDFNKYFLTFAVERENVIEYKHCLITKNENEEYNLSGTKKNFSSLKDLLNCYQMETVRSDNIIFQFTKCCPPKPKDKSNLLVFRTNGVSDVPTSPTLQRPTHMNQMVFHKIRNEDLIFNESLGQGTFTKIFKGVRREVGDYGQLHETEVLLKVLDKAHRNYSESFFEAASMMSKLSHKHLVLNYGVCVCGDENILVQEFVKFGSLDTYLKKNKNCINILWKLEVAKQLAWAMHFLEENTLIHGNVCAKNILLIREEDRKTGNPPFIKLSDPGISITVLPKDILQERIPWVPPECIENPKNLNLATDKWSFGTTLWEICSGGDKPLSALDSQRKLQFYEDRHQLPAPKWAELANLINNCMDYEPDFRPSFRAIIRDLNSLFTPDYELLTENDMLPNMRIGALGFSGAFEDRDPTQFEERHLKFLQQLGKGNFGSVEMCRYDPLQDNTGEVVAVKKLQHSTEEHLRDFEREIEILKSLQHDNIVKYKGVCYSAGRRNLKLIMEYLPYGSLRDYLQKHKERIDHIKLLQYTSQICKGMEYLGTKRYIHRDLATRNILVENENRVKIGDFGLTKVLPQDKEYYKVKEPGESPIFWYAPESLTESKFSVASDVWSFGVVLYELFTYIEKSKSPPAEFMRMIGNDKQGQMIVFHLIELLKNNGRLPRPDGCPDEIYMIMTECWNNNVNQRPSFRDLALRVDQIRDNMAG
Description: as §4, §1, §2, §3

## CN(C)S(=O)(=O)C[C@H]1CC[C@H](N(C)c2ncnc3[nH]ccc23)CC1 [Example 57, N,N-dimethyl((1r,4r)-4-(methyl(7H-pyrrolo[2,3-d]pyrimidin-4-yl)amino)-cyclohexyl)-methanesulfonamide]
[1]
  IC50: 174 nM
[2]
  IC50: 7.33 nM
[3]
  IC50: 27.5 nM

## COc1ccccc1CCCNS(=O)(=O)C[C@H]1CC[C@H](N(C)c2ncnc3[nH]ccc23)CC1 [Example 40, N-[3-(2-methoxyphenyl)-propyl]-1-{trans-4-[methyl(7H-pyrrolo[2,3-d]-pyrimidin-4-yl)amino]-cyclohexyl}-methanesulfonamide]
[1]
  IC50: 208 nM
[2]
  IC50: 10.7 nM
[3]
  IC50: 29.8 nM

## CN(c1ncnc2[nH]ccc12)[C@H]1CC[C@H](CS(=O)(=O)Nc2ccc(C#N)cc2)CC1 [Example 21, N-(4-cyanophenyl)-1-{trans-4-[methyl(7H-pyrrolo[2,3-d]pyrimidin-4-yl)amino]cyclohexyl}-methanesulfonamide]
[1]
  IC50: 140 nM
[2]
  IC50: 10.3 nM
[3]
  IC50: 52.4 nM

## COc1ccccc1CCNS(=O)(=O)C[C@H]1CC[C@H](N(C)c2ncnc3[nH]ccc23)CC1 [Example 5, N-[2-(2-methoxyphenyl)-ethyl]-1-{trans-4-[methyl-(7H-pyrrolo[2,3-d]pyrimidin-4-yl)amino]cyclohexyl}-methanesulfonamide]
[1]
  IC50: 188 nM
[2]
  IC50: 3.78 nM
[3]
  IC50: 17 nM

## CN(c1ncnc2[nH]ccc12)[C@H]1CC[C@@H](CS(=O)(=O)NCCc2ccccc2)CC1 [Example 53, 1-{cis-4-[methyl(7H-pyrrolo[2,3-d]pyrimidin-4-yl)amino]cyclohexyl}-N-(2-phenylethyl)-methanesulfonamide]
[1]
  IC50: 119 nM
[2]
  IC50: 11.5 nM
[3]
  IC50: 34.7 nM

## CN(c1ncnc2[nH]ccc12)[C@H]1CC[C@H](CS(=O)(=O)NCCc2ccc(C(F)(F)F)cc2F)CC1 [Example 13, N-{2-[2-fluoro-4-(trifluoro-methyl)phenyl]ethyl}-1-{trans-4-[methyl(7H-pyrrolo[2,3-d]pyrimidin-4-yl)amino]cyclohexyl}-methanesulfonamide]
[2]
  IC50: 17.4 nM
[3]
  IC50: 55.3 nM

## CN(c1ncnc2[nH]ccc12)[C@H]1CC[C@H](CS(=O)(=O)NCC(O)c2ccc(F)c(F)c2)CC1 (stereo partly drawn) [Example 39, N-[2-(3,4-difluorophenyl)-2-hydroxyethyl]-1-{trans-4-[methyl(7H-pyrrolo[2,3-d]pyrimidin-4-yl)amino]-cyclohexyl}-methanesulfonamide]
[1]
  IC50: 240 nM
[2]
  IC50: 9.79 nM
[3]
  IC50: 30.6 nM

## CN(c1ncnc2[nH]ccc12)[C@H]1CC[C@H](CS(=O)(=O)NC2CC2)CC1 [Example 1, N-cyclopropyl-1-{trans-4-[methyl(7H-pyrrolo[2,3-d]pyrimidin-4-yl)amino]cyclohexyl}methanesulfonamide]
[1]
  IC50: 224 nM
[2]
  IC50: 10 nM
[3]
  IC50: 45.4 nM

## CN(c1ncnc2[nH]ccc12)[C@H]1CC[C@H](CS(=O)(=O)NCCc2ccccc2F)CC1 [Example 14, N-[2-(2-fluorophenyl)ethyl]-1-{trans-4-[methyl(7H-pyrrolo[2,3-d]pyrimidin-4-yl)amino]cyclohexyl}methanesulfonamide]
[1]
  IC50: 148 nM
[2]
  IC50: 4.65 nM
[3]
  IC50: 20.5 nM

## CN(c1ncnc2[nH]ccc12)[C@H]1CC[C@H](CS(=O)(=O)Nc2ccc(CC#N)cc2)CC1 [Example 20, N-[4-(cyanomethyl)phenyl]-1-{trans-4-[methyl(7H-pyrrolo[2,3-d]pyrimidin-4-yl)amino]cyclohexyl}methane-sulfonamide]
[1]
  IC50: 96.1 nM
[2]
  IC50: 9.58 nM
[3]
  IC50: 38.1 nM

## CN(CCO)S(=O)(=O)C[C@H]1CC[C@H](N(C)c2ncnc3[nH]ccc23)CC1 [Example 17, N-(2-hydroxyethyl)-N-methyl-1-{trans-4-[methyl-(7H-pyrrolo[2,3-d]pyrimidin-4-yl)amino]cyclohexyl}-methanesulfonamide]
[1]
  IC50: 332 nM
[2]
  IC50: 16.3 nM
[3]
  IC50: 44.2 nM

## CN(Cc1cnccn1)S(=O)(=O)C[C@H]1CC[C@H](N(C)c2ncnc3[nH]ccc23)CC1 [Example 43, N-methyl-1-{trans-4-[methyl(7H-pyrrolo[2,3-d]-pyrimidin-4-yl)amino]-cyclohexyl}-N-(pyrazin-2-ylmethyl)-methanesulfonamide]
[1]
  IC50: 517 nM
[2]
  IC50: 14.9 nM
[3]
  IC50: 53.2 nM

## C[C@H](O)CNS(=O)(=O)C[C@H]1CC[C@H](N(C)c2ncnc3[nH]ccc23)CC1 [Example 49, N-[(2S)-2-hydroxypropyl]-1-{trans-4-[methyl(7H-pyrrolo[2,3-d]pyrimidin-4-yl)amino]cyclohexyl}-methanesulfonamide]
[1]
  IC50: 526 nM
[2]
  IC50: 21.4 nM
[3]
  IC50: 64.2 nM

## CN(c1ncnc2[nH]ccc12)[C@H]1CC[C@@H](CS(=O)(=O)NCC2CC2)CC1 [Example 55, N-(cyclopropylmethyl)-1-{cis-4-[methyl(7H-pyrrolo[2,3-d]pyrimidin-4-yl)amino]cyclohexyl}-methanesulfonamide]
[1]
  IC50: 201 nM
[2]
  IC50: 11.4 nM
[3]
  IC50: 34.1 nM

## CN(c1ncnc2[nH]ccc12)[C@H]1CC[C@H](CS(=O)(=O)NCCC(F)=C(F)F)CC1 [Example 48, 1-{trans-4-[methyl(7H-pyrrolo[2,3-d]pyrimidin-4-yl)amino]cyclohexyl}-N-(3,4,4-trifluorobut-3-en-1-yl)methanesulfonamide]
[1]
  IC50: 267 nM
[2]
  IC50: 19.6 nM
[3]
  IC50: 66 nM

## CN(c1ncnc2[nH]ccc12)[C@H]1CC[C@H](CS(=O)(=O)NC[C@H]2CCCO2)CC1 [Example 47, 1-{trans-4-[methyl(7H-pyrrolo[2,3-d]pyrimidin-4-yl)amino]cyclohexyl}-N-[(2R)-tetrahydrofuran-2-ylmethyl]-methanesulfonamide]
[1]
  IC50: 1060 nM
[2]
  IC50: 16.1 nM
[3]
  IC50: 174 nM
